The conditions of series [1]: Liquid.
A short description of series [2]: molar enthalpy of vaporization or sublimation. Conditions: 298.15 K; Liquid.

Numbers after ± are expanded uncertainties.

A word on the vapor or sublimation pressure: it is the equilibrium pressure above the liquid or solid. On to `CCCCCCCCCCCCCCCCCCCCCC` [docosane], for which the “vapor or sublimation pressure” value in series [1] (298.15 K) was 2.148e-07 ± 4e-07 kPa; in series [1] (328.15 K) it was 1.218e-05 ± 5.5e-06 kPa; in series [1] (358.15 K), 0.0002988 ± 8.8e-05 kPa; in series [1] (388.15 K), 0.003922 ± 0.00095 kPa; in series [1] (418.15 K), 0.032 ± 0.007 kPa; in series [1] (448.15 K), 0.1809 ± 0.038 kPa. For the same molecule, the “vapor or sublimation pressure” value in series [1] (478.15 K) was determined as 0.7674 ± 0.16 kPa; in series [1] (508.15 K) it was 2.593 ± 0.53 kPa; in series [1] (538.15 K), 7.298 ± 1.5 kPa; in series [1] (568.15 K) it was 17.71 ± 3.6 kPa; in series [1] (575.15 K) it was 21.39 ± 4.3 kPa. In addition, the molar enthalpy in series [2] worked out at 26.7 ± 1.89 kcal/mol.
For `CCCCCCCCCCCCCCCCCCCCC` [heneicosane], the “vapor or sublimation pressure” value in series [1] (298.15 K) is reported as 6.69e-07 kPa; in series [1] (328.15 K), 3.15e-05 ± 2.3e-05 kPa; in series [1] (358.15 K), 0.0006673 ± 0.00029 kPa; in series [1] (388.15 K), 0.007785 ± 0.0025 kPa; in series [1] (418.15 K) it was 0.05774 ± 0.015 kPa; in series [1] (448.15 K), 0.3019 ± 0.071 kPa. Moreover, the “vapor or sublimation pressure” value is given as 1.201 ± 0.27 kPa in series [1] (478.15 K); 3.849 ± 0.83 kPa in series [1] (508.15 K); 10.36 ± 2.2 kPa in series [1] (538.15 K); 24.22 ± 5 kPa in series [1] (568.15 K); 29.02 ± 6 kPa in series [1] (575.15 K). In series [2], the molar enthalpy is 25.5 ± 1.74 kcal/mol.
Regarding `CCCCCCCCCCCCCCCCCCCCCCCCCCC` [heptacosane], the “vapor or sublimation pressure” value amounted to 1.127e-09 kPa in series [1] (298.15 K); 1.502e-07 ± 1.2e-07 kPa in series [1] (328.15 K); 7.253e-06 ± 2.8e-06 kPa in series [1] (358.15 K); 0.0001636 ± 3.8e-05 kPa in series [1] (388.15 K); 0.002067 ± 0.00034 kPa in series [1] (418.15 K); 0.01669 ± 0.0023 kPa in series [1] (448.15 K). Further, the “vapor or sublimation pressure” value in series [1] (478.15 K) is 0.09492 ± 0.012 kPa; in series [1] (508.15 K) it was 0.4089 ± 0.046 kPa; in series [1] (538.15 K) it was 1.409 ± 0.15 kPa; in series [1] (568.15 K), 4.056 ± 0.43 kPa; in series [1] (575.15 K) it was 5.076 ± 0.53 kPa. Further, in series [2], the molar enthalpy worked out at 32.4 ± 2.29 kcal/mol.
In the case of `CCCCCCCCCCCCCCCCCCCCCCCCCC` [hexacosane], the “vapor or sublimation pressure” value in series [1] (298.15 K) was 2.809e-09 kPa; in series [1] (328.15 K) it was 3.247e-07 ± 2.4e-07 kPa; in series [1] (358.15 K), 1.401e-05 ± 5.6e-06 kPa; in series [1] (388.15 K), 0.0002888 ± 8.1e-05 kPa; in series [1] (418.15 K), 0.003393 ± 0.0008 kPa; in series [1] (448.15 K), 0.02583 ± 0.0056 kPa. For the same molecule, the “vapor or sublimation pressure” value in series [1] (478.15 K) is 0.14 ± 0.029 kPa; in series [1] (508.15 K) it was 0.5797 ± 0.12 kPa; in series [1] (538.15 K) it was 1.934 ± 0.4 kPa; in series [1] (568.15 K), 5.417 ± 1.1 kPa; in series [1] (575.15 K), 6.742 ± 1.4 kPa. The molar enthalpy in series [2] is 31.5 ± 2.22 kcal/mol.
In the case of `CCCCCCCCCCCCCCCCCCCCCCCCCCCCC` [nonacosane], the “vapor or sublimation pressure” value is given as 1.018e-10 kPa in series [1] (298.15 K); 2.044e-08 ± 2.3e-08 kPa in series [1] (328.15 K); 1.365e-06 ± 6.8e-07 kPa in series [1] (358.15 K); 3.99e-05 ± 1.1e-05 kPa in series [1] (388.15 K); 0.0006219 ± 0.00012 kPa in series [1] (418.15 K); 0.005963 ± 0.00088 kPa in series [1] (448.15 K). The “vapor or sublimation pressure” value worked out at 0.0391 ± 0.005 kPa in series [1] (478.15 K); 0.1897 ± 0.022 kPa in series [1] (508.15 K); 0.7225 ± 0.08 kPa in series [1] (538.15 K); 2.264 ± 0.24 kPa in series [1] (568.15 K); 2.884 ± 0.3 kPa in series [1] (575.15 K). Further, the molar enthalpy in series [2] was 35.2 ± 3.59 kcal/mol.
As for `CCCCCCCCCCCCCCCCCCCCCCCCCCCC` [octacosane], the “vapor or sublimation pressure” value in series [1] (298.15 K) is listed as 3.173e-10 kPa; in series [1] (328.15 K), 5.263e-08 ± 5.1e-08 kPa; in series [1] (358.15 K), 3.022e-06 ± 1.4e-06 kPa; in series [1] (388.15 K), 7.829e-05 ± 2.4e-05 kPa; in series [1] (418.15 K), 0.001107 ± 0.00027 kPa; in series [1] (448.15 K), 0.009795 ± 0.0022 kPa. The “vapor or sublimation pressure” value was 0.06012 ± 0.013 kPa in series [1] (478.15 K); 0.276 ± 0.057 kPa in series [1] (508.15 K); 1.004 ± 0.21 kPa in series [1] (538.15 K); 3.025 ± 0.62 kPa in series [1] (568.15 K); 3.823 ± 0.77 kPa in series [1] (575.15 K). Besides, the molar enthalpy in series [2] was determined as 33.9 ± 3.35 kcal/mol.
Turning to `CCCCCCCCCCCCCCCCCCCCCCCCC` [pentacosane], the “vapor or sublimation pressure” value in series [1] (298.15 K) is recorded as 8.145e-09 kPa; in series [1] (328.15 K), 7.894e-07 ± 5.2e-07 kPa; in series [1] (358.15 K), 2.963e-05 ± 1.1e-05 kPa; in series [1] (388.15 K) it was 0.0005462 ± 0.00015 kPa; in series [1] (418.15 K), 0.005863 ± 0.0014 kPa; in series [1] (448.15 K), 0.04146 ± 0.009 kPa. The “vapor or sublimation pressure” value in series [1] (478.15 K) is 0.2114 ± 0.044 kPa; in series [1] (508.15 K), 0.8322 ± 0.17 kPa; in series [1] (538.15 K), 2.661 ± 0.54 kPa; in series [1] (568.15 K) it was 7.192 ± 1.5 kPa; in series [1] (575.15 K), 8.882 ± 1.8 kPa. Further, the molar enthalpy in series [2] was 30.3 ± 2.03 kcal/mol.
For `CCCCCCCCCCCCCCCCCCCCCCCC` [tetracosane], the “vapor or sublimation pressure” value in series [1] (298.15 K) was found to be 2.373e-08 kPa; in series [1] (328.15 K) it was 1.931e-06 ± 1.1e-06 kPa; in series [1] (358.15 K), 6.308e-05 ± 2.1e-05 kPa; in series [1] (388.15 K), 0.001041 ± 0.00027 kPa; in series [1] (418.15 K), 0.01022 ± 0.0023 kPa; in series [1] (448.15 K), 0.06716 ± 0.014 kPa. Further, the “vapor or sublimation pressure” value came to 0.3225 ± 0.067 kPa in series [1] (478.15 K); 1.208 ± 0.25 kPa in series [1] (508.15 K); 3.705 ± 0.75 kPa in series [1] (538.15 K); 9.668 ± 2 kPa in series [1] (568.15 K); 11.85 ± 2.4 kPa in series [1] (575.15 K). The molar enthalpy in series [2] was 29.1 ± 1.96 kcal/mol.
For the molecule `CCCCCCCCCCCCCCCCCCCCCCCCCCCCCC` [triacontane], the “vapor or sublimation pressure” value is recorded as 3.317e-11 kPa in series [1] (298.15 K); 8.03e-09 ± 1e-08 kPa in series [1] (328.15 K); 6.217e-07 ± 3.6e-07 kPa in series [1] (358.15 K); 2.045e-05 ± 7.1e-06 kPa in series [1] (388.15 K); 0.0003508 ± 9.2e-05 kPa in series [1] (418.15 K); 0.003636 ± 0.00084 kPa in series [1] (448.15 K). Besides, the “vapor or sublimation pressure” value in series [1] (478.15 K) was 0.02543 ± 0.0055 kPa; in series [1] (508.15 K), 0.1301 ± 0.027 kPa; in series [1] (538.15 K), 0.5185 ± 0.11 kPa; in series [1] (568.15 K) it was 1.687 ± 0.34 kPa; in series [1] (575.15 K), 2.167 ± 0.44 kPa. The molar enthalpy in series [2] came out at 36.4 ± 3.82 kcal/mol.
Turning to `CCCCCCCCCCCCCCCCCCCCCCC` [tricosane], the “vapor or sublimation pressure” value in series [1] (298.15 K) was 7.059e-08 kPa; in series [1] (328.15 K) it was 4.801e-06 ± 2.5e-06 kPa; in series [1] (358.15 K), 0.0001361 ± 4.3e-05 kPa; in series [1] (388.15 K), 0.002006 ± 0.0005 kPa; in series [1] (418.15 K), 0.01797 ± 0.004 kPa; in series [1] (448.15 K), 0.1096 ± 0.023 kPa. Further, the “vapor or sublimation pressure” value in series [1] (478.15 K) came to 0.4952 ± 0.1 kPa; in series [1] (508.15 K) it was 1.763 ± 0.36 kPa; in series [1] (538.15 K), 5.183 ± 1.1 kPa; in series [1] (568.15 K) it was 13.05 ± 2.6 kPa; in series [1] (575.15 K) it was 15.88 ± 3.2 kPa. Moreover, the molar enthalpy in series [2] was determined as 28 ± 1.96 kcal/mol.
